# Results taken from PubChem BioAssay AID1648 (Sanford-Burnham Center for Chemical Genomics, 2009).
# Activity calls are given as the source filed them. No rule for the calls is given here.
# Target: Serine/threonine-protein kinase mTOR (Homo sapiens) (UniProt P42345)
# Experiment: mTOR FRB domain ligand binding – biophysical, NMR (AID 1648)
# Details: NMR binding to FRB domain, chemical shift
# Sequence of Serine/threonine-protein kinase mTOR (Homo sapiens) (P42345 2015-2114): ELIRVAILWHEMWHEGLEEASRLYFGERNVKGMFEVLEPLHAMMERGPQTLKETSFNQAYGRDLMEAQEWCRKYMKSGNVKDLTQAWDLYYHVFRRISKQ
row,SMILES,Kd
1,NCCc1c[nH]c2ccccc12,> 4 mM (inactive)
2,O=C(Nc1nccs1)c1cccnc1,> 4 mM (inactive)
3,CCCCC(Nc1n[nH]c(=O)[nH]c1=O)C(=O)O (stereo not drawn),> 4 mM (inactive)
4,Cc1[nH]c(=O)[nH]c(=O)c1N1CCOCC1,> 4 mM (inactive)
5,CSc1nnc2c(n1)OC(C)=Nc1ccccc1-2,> 4 mM (inactive)
6,COc1cc(OC)c2c(=O)c(O)c(-c3ccc(OC)c(OC)c3)oc2c1,> 4 mM (inactive)
7,O=C(COc1ccccc1O)NCCO,> 4 mM (inactive)
8,O=C(NCCO)NC(=S)c1ccccc1,> 4 mM (inactive)
9,COc1ccccc1NC(=O)c1ccc(Br)o1,> 4 mM (inactive)
10,c1ccc(-c2nc3ccccc3nc2-c2ccccn2)nc1,> 4 mM (inactive)
11,N#Cc1cnn(Cc2ccc(Cl)cc2)c1N,> 4 mM (inactive)
12,NC(N)=Nc1nc2ccccc2o1,> 4 mM (inactive)
13,O=C(Nc1cccc(O)c1)c1ccccc1,> 4 mM (inactive)
14,O=C(Nc1cccnc1)c1cccs1,> 4 mM (inactive)
15,COc1cc(OC)c2c(=O)c(-c3ccccc3)coc2c1,> 4 mM (inactive)
16,CS(=O)(=O)c1ccc(N)cc1,> 4 mM (inactive)
17,CC(C)CC(=O)NC1CCSC1=O (stereo not drawn),> 4 mM (inactive)
18,COc1ccc(NC(=O)C2CC(=O)N=C(N)S2)cc1 (stereo not drawn),> 4 mM (inactive)
19,CCCNC(=O)c1cnc2n(c1=O)CCS2,> 4 mM (inactive)
20,NC(=O)c1cn(-c2ccccc2)nc1-c1cccnc1,> 4 mM (inactive)
21,Cc1cc(C(=O)Nc2cccnc2)cs1,> 4 mM (inactive)
22,O=C1OCCC1Sc1nc2ccccc2c(=O)[nH]1 (stereo not drawn),> 4 mM (inactive)

row,SMILES,Kd
1,N#Cc1c[nH]n2c(=O)cc(Cc3ccccc3)nc12,> 4 mM (inactive)
2,Nn1c(CN2CCCCC2)nc2ccccc2c1=O,> 4 mM (inactive)
3,O=C(O)C1CSC(c2ccc(Cl)cc2)N1 (stereo not drawn),> 4 mM (inactive)
4,Fc1cccc(F)c1CN1CCN(c2ncccn2)CC1,> 4 mM (inactive)
5,C/C(=N\NC(N)=S)C(=O)O,> 4 mM (inactive)
6,Cc1ccc(NC(=O)C(=O)Nc2ccccn2)cc1,> 4 mM (inactive)
7,CN1C(=O)C(Cc2c[nH]c3ccccc23)C(=O)N(C)C1=O,> 4 mM (inactive)
8,O=C(O)c1ccc2ccccc2n1,> 4 mM (inactive)
9,CNc1nc(OC)nc(N2CCOCC2)n1,> 4 mM (inactive)
10,CC(=O)c1ccc(NC(=O)c2ocnc2C)cc1,> 4 mM (inactive)
11,CN1CCOc2cc(C(=O)O)ccc21,> 4 mM (inactive)
12,Cc1nn(-c2ccccc2)c(Cl)c1C(N)=O,> 4 mM (inactive)
13,NC1=NC(=O)/C(=C\c2cccnc2)S1,> 4 mM (inactive)
14,CC1=CC2C(C(C)C)CCC(C)(O)C2CC1 (stereo not drawn),> 4 mM (inactive)
15,Nc1ccccc1OC(F)(F)F,> 4 mM (inactive)
16,Clc1ccccc1OCc1nc(-c2ccccn2)no1,> 4 mM (inactive)
17,CC1(C)Cc2cccc(CO)c2O1,> 4 mM (inactive)
18,COc1ncnc(N)c1[N+](=O)[O-],> 4 mM (inactive)
19,CC1/C(=N/O)C[C@@H]2C[C@H]1C2(C)C (stereo partly drawn),> 4 mM (inactive)
20,CN1CCN(CC(O)c2ccccc2)CC1 (stereo not drawn),> 4 mM (inactive)
21,CCNCC(O)c1ccc([N+](=O)[O-])cc1 (stereo not drawn),> 4 mM (inactive)
22,CC1(C)C=Cc2c(cc3occ(-c4ccc5c(c4)OCO5)c(=O)c3c2O)O1,> 4 mM (inactive)

row,SMILES,Kd
1,O=C(O)CSc1nnc(-c2cccs2)o1,> 4 mM (inactive)
2,CS/C(N)=C\C(C)=O,> 4 mM (inactive)
3,CC(=O)NN1C(=O)c2cccc3cccc(c23)C1=O,> 4 mM (inactive)
4,Cc1cc(-c2ccccc2)nc2cc(C(N)=O)nn12,> 4 mM (inactive)
5,Cc1cc(NC(=O)NCCCSc2nncn2C)no1,> 4 mM (inactive)
6,c1ccc(Cc2nnc3sc(-c4ccccn4)nn23)cc1,> 4 mM (inactive)
7,Nc1ccc2c(C(F)(F)F)cc(=O)oc2c1,> 4 mM (inactive)
8,COc1cc(OC)cc(-c2nc(N)n[nH]2)c1,> 4 mM (inactive)
9,Cc1ccc(C(=O)Nn2cnnc2)s1,> 4 mM (inactive)
10,O=C(O)c1sccc1-n1cccc1,> 4 mM (inactive)
11,O=C(O[C@@H]1Cc2c(O)cc(O)cc2O[C@@H]1c1cc(=O)c(O)c2c(O)c(O)cc([C@H]3Oc4cc(O)cc(O)c4C[C@H]3O)c2c1)c1cc(O)c(O)c(O)c1,> 4 mM (inactive)
12,COc1ccc(NC(=O)N2CCCCC2)cc1,> 4 mM (inactive)
13,Nc1ccc2c(c1)OCO2,> 4 mM (inactive)
14,O=C(O)c1cccc(CSc2ncccn2)c1,> 4 mM (inactive)
15,CN1C(=O)c2ccc(N3CCCC3)cc2C1=O,> 4 mM (inactive)
16,O=C(Nc1nnc(-c2ccco2)o1)C1=COCCO1,> 4 mM (inactive)
17,CC(=O)Nc1ccc(N2C(=O)C=CC2=O)cc1C,> 4 mM (inactive)
18,C=C[C@@]1(C)CC(=O)[C@@]2(O)[C@](C)(O1)[C@@H](OC(C)=O)[C@@H](O)C1C(C)(C)CC[C@H](O)[C@@]12C (stereo partly drawn),> 4 mM (inactive)
19,Cc1ccc(C(O)c2nccn2C)o1 (stereo not drawn),> 4 mM (inactive)
20,CC1CCC2(OC1)OC1CC3C4CC[C@H]5C[C@@H](O)CC[C@]5(C)C4CC(=O)[C@]3(C)C1C2C (stereo partly drawn),> 4 mM (inactive)
21,COCCOc1nc2ccccc2nc1C,> 4 mM (inactive)
22,Cc1oc(-c2ccccc2)nc1CCO,> 4 mM (inactive)

row,SMILES,Kd
1,CCS(=O)(=O)N1CCN(c2ccccc2F)CC1,> 4 mM (inactive)
2,Clc1ccc(-c2noc(CN3CCCC3)n2)cc1,> 4 mM (inactive)
3,O=C(/C=C/c1ccccc1)NC1CCS(=O)(=O)C1 (stereo not drawn),> 4 mM (inactive)
4,COC(=O)/C(=C1\OC(=O)C(c2ccccc2)C1=O)c1ccccc1 (stereo not drawn),> 4 mM (inactive)
5,COc1cc(OC)c2c(c1)O[C@H](c1ccc(OC)c(OC)c1)[C@@H](O)C2,> 4 mM (inactive)
6,O=C(Nc1ccc2c(c1)OCO2)c1c(F)cccc1F,> 4 mM (inactive)
7,CC1=C(C(=O)Nc2ccccc2)SCCO1,> 4 mM (inactive)
8,CS(=O)(=O)N1CCN(C(=O)c2ccccc2)C1,> 4 mM (inactive)
9,COc1ccc(-c2nc(C)sc2CC(=O)O)cc1,> 4 mM (inactive)
10,NC(=O)CC1NC(=O)c2ccccc21 (stereo not drawn),> 4 mM (inactive)
11,O=C(NN1C(=O)c2ccccc2C1=O)c1cccs1,> 4 mM (inactive)
12,CC(=O)c1c(C)nc(-c2ccc(F)cc2)n1O,> 4 mM (inactive)
13,Fc1ccc(N2CCNCC2)cc1,> 4 mM (inactive)
14,Cc1nc2nc(COc3ccccc3)nn2c(C)c1Cl,> 4 mM (inactive)
15,Cc1ccc(C(=O)N2CCC(C(N)=O)CC2)c(Cl)c1,> 4 mM (inactive)
16,CC(=O)Oc1c(C)cc(O)c2ccccc12,> 4 mM (inactive)
17,Cc1cc(C(=O)NCc2cccs2)cs1,> 4 mM (inactive)
18,O=C(Nc1ccccc1)C(=O)NC1CC1,> 4 mM (inactive)
19,OCn1nnn(-c2ccccc2)c1=S,> 4 mM (inactive)
20,COc1cc2c(cc1OC)C1(O)C(=O)c3ccc(O)c(C(=O)O)c3OC1CO2 (stereo not drawn),> 4 mM (inactive)
21,O=C(Nc1nnc(C(F)(F)F)s1)c1cccnc1,> 4 mM (inactive)
22,O=C(O)CS(=O)(=O)c1ccccc1,> 4 mM (inactive)
